# Test results reported in patent US5077280A, “Treatment of viral infections” (priority 1988, dated 1991).
# Key:
# [1] = test system: bone marrow cell growth (granulocyte-macrophages and erythrocytes); details: patients; cited from earlier work
# human bone marrow cells = test: toxicity for human bone marrow cells; type: cell-based
# human CFU-GM cells = test: human CFU-GM cell proliferation; type: cell-based; details: concentrations as high as 100 μM
# bone marrow cells = type: cell-based, human; details: 5 μM AZT for 2 hours; 50-100 μM of uridine (and also cytidine)
# [2] = test system: viral replication (reverse transcriptase); test: suppression of viral replication (assessed by inhibition of reverse transcriptase); type: cell-based; details: combination molar ratios (uridine/AZT) as high as 10,000/1
# [3] = in vivo; cited from earlier work
smiles,measurement,setting,value
"Cc1cn([C@H]2C[C@H](N=[N+]=[N-])[C@@H](CO)O2)c(=O)[nH]c1=O [AZT, 3'-azido-3'deoxythymidine]",common complication of AZT therapy,[1],suppression of bone marrow cell growth
"O=c1[nH]c(=O)n(COCCO)cc1Cc1ccccc1 [BAU, benzylacyclouridine]",toxicity per se for human bone marrow cells,human bone marrow cells,non-toxic
same,effect on human CFU-GM cell proliferation,human CFU-GM cells,no substantial effect
Nc1ccn([C@@H]2O[C@H](CO)[C@@H](O)[C@H]2O)c(=O)n1 [cytidine],reversal of toxic effects of antiviral nucleoside analogues,bone marrow cells,essentially completely reversed
O=c1ccn([C@@H]2O[C@H](CO)[C@@H](O)[C@H]2O)c(=O)[nH]1 [uridine],reversal of toxic effects of antiviral nucleoside analogues,bone marrow cells,essentially completely reversed
same,impairment of suppression of viral replication,[2],no impairment of suppression of viral replication
same,clearance by the body,[3],cleared rapidly
